System: intracellular Ca2+ (LRP1 / NMDA receptor) in RGC
Experiment: Intracellular Ca2+ increase in RGC after glutamate+glycine (Fluo-8 fluorescence)
Assay type: cell-based, rat
Settings: E-LP 100 ng protein/mL, 15 minutes before 300 μM glutamate+10 μM glycine
Protocol: The inflow of calcium into RGC was confirmed in the manner as described below. Specifically, RGC was incubated on a microdish at least for 14 days, followed by incubation at 37° C. for 30 minutes using 3 μM Fluo-8 acetoxymethyl ester (AAT Bioquest, Sunnyvale, Calif.). The resulting cells were washed twice with 500 μl of the above HBSS, and 300 μM glutamate and 10 μM glycine were poured. The fluorescence images were taken at every 500 msec by ORCA-R2 digital camera (Hamamatsu Photonics, Hamamatsu, Japan) and analyzed by MetaFluor fluorescence ratio imaging software (Molecular Devices, Sunnyvale, Calif.).
RGC was labeled with Fluo-8 acetoxymethyl ester for 30 minutes, and Glu (300 μM glutamate+10 μM glycine) was added thereto. Fluorescent ratio images were as represented by colors indicated by the color index shown at the lower side of FIG. 12A. The color was represented as Ratio 0 and Ratio 2 corresponding to the base fluorescent intensity (Ratio 1) before Glu stimulation. The panels on the left and right sides indicate Glu and Glu+E-LP, respectively. […] The scale bar is 80 μm.
FIGS. 12B and C show variations of fFuo-8 fluorescence represented by ΔF/F0. In the figures, F0 indicates the base fluorescence intensity before Glu stimulation. * and **: p<0.005 and p<0.0001 (Glu vs. Glu+E-LP). […]

E-LP: reconstituted lipoprotein of 1-palmitoyl-2-oleyl-glycerophosphocoline, cholesterol and recombinant human apolipoprotein E, molar ratio 100:10:1 or 100:0:1
increase in intracellular Ca2+: inhibits

Source: patent publication US20140228299A1, “PROPHYLACTIC AND THERAPEUTIC AGENT FOR NEUROLOGICAL DISEASES USING LIPOPROTEINS AND PROPHYLACTIC AND THERAPEUTIC METHOD FOR NEUROLOGICAL DISEASES” (National University Corporation Tokyo Medical and Dental …, priority 2011, published 2014)
